Series [1] in a line: Stability/conversion of esters in human intestinal S9. Type of series: in vitro ADME. The method, then:
(§1) The human intestinal S9 with the absence of PMSF, human liver S9, rat intestinal S9, and rat liver S9 preparations were obtained from Xenotech (Lenexa, Kans.). The 500-μL incubation solution contained 0.8 mg/mL of enzyme (or no enzyme for buffer stability), 10 μM of test compounds in 100 mM of HEPES buffer, pH 7.4. The hydrolysis reactions were conducted in a 1-mL glass insert (Analytical Sales, Pompton Plains, N.J.) in a shake water bath at 37° C. At 0, 2, 5, 10, 15, 30 and 60 min, the reaction was terminated by pipetting 50 μL incubate to a 96 DeepWell plate (Thermo Fisher Scientific, Rochester, N.Y.) containing 100 μL of acetonitrile with 250 ng/mL of Carbutamide (Sigma-Aldrich, St. Louis, Miss.) as the internal standard. The crashed solutions were then vortexed well followed by centrifuge at 4000 rpm for 15 min at 4° C. The extract was transferred to a new 96 DeepWell plate for LC-MS/MS analysis.
(§2) LC-MS/MS analysis was done using an AB Sciex QTrap 6500 mass spectrometer under positive ionization mode, coupled to a Schimadzu Nexera LC system.
(§3) A Waters Atlantis T3 (3 μm, 3.0×50 mm) column was used for separation. The mobile phase consisted 0.1% formic acid in water (A) and 0.1% formic acid in acetonitrile (B) with a flow rate set at 1.2 mL/min. For the prodrug analysis, the Multiple Reaction Monitoring (MRM) specific for each compound was set up so that both prodrug and its hydrolyzed active can be monitored simultaneously.
(§4) Half-lives listed are based on disappearance of starting ester.

Series [2] can be described thus: Stability/conversion of esters in rat liver S9. Type of series: in vitro ADME. The protocol: as §1, §2, §3, §4
Series [3] is described as follows: Stability/conversion of esters in human liver S9. The format is in vitro ADME. The protocol: as §1, §2, §3, §4
Series [4] in a line: Stability in pH 7.4 buffer (no enzyme). Type of series: physicochemical. The following applies: read-out: T1/2 pH 7.4 Buffer. The method, then:
as §1, §2, §3, §4

Series [5] in a line: Stability/conversion of esters in rat intestinal S9. Type of series: in vitro ADME. The method, then: as §1, §2, §3, §4
For series [6], the target named is OXA-48 (Class D beta-lactamase) (Klebsiella pneumoniae, UniProt Q6XEC0). As to the kind of experiment: Inhibition of beta-lactamase enzymes (nitrocefin hydrolysis), OXA-48. Type of series: biochemical. The following applies: read-out: Class D OXA-48 60 min IC50, nitrocefin 100 μM. The method, then:
(§5) A buffer consisting of 0.1 M sodium phosphate (pH 7.0), 10 mM NaHCO3, and 0.005% Triton X-100 was used for all enzymes. The chromogenic substrate nitrocefin (SynGene, Bangalore, India) was used at 100 μM. Enzyme activity was monitored by the 490 nm absorbance increase upon nitrocefin hydrolysis. Assays were performed in clear polystyrene 384-well plates (Greiner Bio-One, Monroe, N.C.). Absorbance was measured for 1 hour at 30-s intervals using a Spectramax absorbance plate reader (Molecular Devices, Sunnyvale, Calif.). Measurement of beta-lactamase inhibition by INHIBITOR employed serial 3-fold dilutions of the inhibitor in assay buffer, ranging from 100 μM to 62.7 pM. A background absorbance progress curve for a control lacking enzyme and inhibitor was subtracted from each progress curve.
(§6) The complete set of progress curves for one enzyme with all inhibitor concentrations was subjected to numerical integration with the program Kintek Global Kinetic Explorer (Kintek Corp, Snowshoe Pa.) to obtain a best-fit to the mechanism shown in Scheme 10.
(§7) where E, S, ES, P, I, and EI are the concentrations of the enzyme, nitrocefin, the enzyme-nitrocefin complex, the nitrocefin hydrolysis product, INHIBITOR, and the enzyme-INHIBITOR complex respectively. […] The values of k+2, k+3, and k−3 were fit. Concentration series offsets of the absorbance measurements were used to correct for slight absorbance baseline differences between wells. The parameter k+3 is equivalent to the second order rate constant kinact/Ki. In some cases, the inhibition was in rapid equilibrium on the experimental time scale, so that only the ratio k−3/k+3=Ki could be determined. Although k−3 represents reversal of inhibitor binding in Scheme 10, hydrolysis of the enzyme-inhibitor complex could not be excluded based on kinetic measurements.
(§8) Best-fit absorbance values from the above procedure at each time point for each compound concentration were exported to Excel.
(§9) where A is the best-fit absorbance without inhibitor and Ainhib is the best-fit absorbance in the presence of the inhibitor.
(§10) where [I] is the inhibitor concentration and n is the Hill coefficient. The Excel add-in XLfit (ID Business Solutions) was used for nonlinear regression.

For series [7], the target named is TEM-1 (Class A beta-lactamase) (Escherichia coli, UniProt P62593). Kind of series: Inhibition of beta-lactamase enzymes (nitrocefin hydrolysis), TEM-1. Type of series: biochemical. The following applies: read-out: Class A TEM-1 60 min IC50, nitrocefin 100 μM. The method, then:
as §5, §6, §7, §8, §9, §10

[8] abbreviates: s9, pH 7.4, read-out: T1/2 Human Intestinal S9.
Setting [9] is: s9, pH 7.4, read-out: T1/2 Rat Liver S9.
[10] abbreviates: s9, pH 7.4, read-out: T1/2 Human Liver S9.
[11] abbreviates: s9, pH 7.4, read-out: T1/2 Rat Intestinal S9.
[12] abbreviates: intestinal S9 (without PMSF), pH 7.4, read-out: T1/2 Human Intestinal S9.
[13] abbreviates: liver S9, pH 7.4, read-out: T1/2 Rat Liver S9.
Where [14] appears, read: liver S9, pH 7.4, read-out: T1/2 Human Liver S9.
The mark [15] stands for this setting: intestinal S9, pH 7.4, read-out: T1/2 Rat Intestinal S9.

This note sets out measurements from patent US10800778B2 (Entasis Therapeutics Limited, priority 2016, dated 2020).

As usually defined, the IC50 is the midpoint of a concentration-inhibition curve.

Counter-ions that a name gives are not always drawn. Where only a bound is given, the exact number is not on record here.

Chain of TEM-1 (Class A beta-lactamase) (P62593 whole entry, looked up, species assumed): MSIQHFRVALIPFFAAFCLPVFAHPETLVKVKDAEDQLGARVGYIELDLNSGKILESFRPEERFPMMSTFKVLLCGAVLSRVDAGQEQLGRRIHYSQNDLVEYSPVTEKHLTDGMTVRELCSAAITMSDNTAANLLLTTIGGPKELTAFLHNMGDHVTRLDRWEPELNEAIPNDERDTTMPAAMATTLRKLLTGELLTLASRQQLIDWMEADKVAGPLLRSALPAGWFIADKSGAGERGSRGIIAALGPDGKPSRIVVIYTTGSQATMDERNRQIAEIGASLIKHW
Chain of OXA-48 (Class D beta-lactamase) (Q6XEC0 whole entry, looked up, species assumed): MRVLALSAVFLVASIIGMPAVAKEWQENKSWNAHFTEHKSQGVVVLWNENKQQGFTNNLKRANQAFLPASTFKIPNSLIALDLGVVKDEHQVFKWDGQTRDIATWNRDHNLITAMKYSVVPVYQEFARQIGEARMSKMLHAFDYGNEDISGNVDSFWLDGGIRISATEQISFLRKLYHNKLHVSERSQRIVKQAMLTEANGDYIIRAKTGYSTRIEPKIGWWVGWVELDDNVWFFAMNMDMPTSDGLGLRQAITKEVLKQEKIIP

With `CCOC(=O)[C@@H](F)ON1C(=O)N2C[C@H]1C=C(C)[C@H]2C(N)=O` [Example 1, (R)-ethyl 2-((2S,5R)-2-carbamoyl-3-methyl-7-oxo-1,6-diazabicyclo[3.2.1]oct-3-en-6-yloxy)-2-fluoroacetate], the half-life at 10 μM in series [1] (setting [8]) worked out at 38 min; in series [2] (setting [9]), 4.4 min; in series [3] (setting [10]) it was 6.5 min; in series [4] (buffer), 41 min; in series [5] (setting [11]), 39 min.
For `CCOC(=O)[C@H](F)ON1C(=O)N2C[C@H]1C=C(C)[C@H]2C(N)=O` [Example 2, (S)-ethyl 2-((2S,5R)-2-carbamoyl-3-methyl-7-oxo-1,6-diazabicyclo[3.2.1]oct-3-en-6-yloxy)-2-fluoroacetate] the same measures were 21 min, 1.4 min, 1.9 min, 29 min and 24 min.
Consider `CCOC(=O)C(F)(F)ON1C(=O)N2C[C@H]1C=C(C)[C@H]2C(N)=O` [Example 7, ethyl {[(2S,5R)-2-carbamoyl-3-methyl-7-oxo-1,6-diazabicyclo[3.2.1]oct-3-en-6-yl]oxy}(difluoro)acetate], for which the half-life at 10 μM in series [1] (setting [12]) was 2.4 min; in series [2] (setting [13]), 0.5 min; in series [3] (setting [14]) it was 0.8 min; in series [4] (HEPES buffer without enzyme), 3.9 min; in series [5] (setting [15]) it was 3.9 min.
With `CCOC(=O)CON1C(=O)N2C[C@H]1C=C(C)[C@H]2C(N)=O` [Example 9, ethyl {[(2S,5R)-2-carbamoyl-3-methyl-7-oxo-1,6-diazabicyclo[3.2.1]oct-3-en-6-yl]oxy}acetate], the half-life at 10 μM in series [1] (setting [12]) is 17.8 min; in series [2] (setting [13]), 1.4 min; in series [3] (setting [14]), 2.9 min; in series [4] (HEPES buffer without enzyme), 18.3 min; in series [5] (setting [15]), 27.3 min.
For `CC1=C[C@@H]2CN(C(=O)N2O[C@@H](F)C(=O)OC(C)C)[C@@H]1C(N)=O` [Example 13, propan-2-yl (2S)-{[(2S,5R)-2-carbamoyl-3-methyl-7-oxo-1,6-diazabicyclo[3.2.1]oct-3-en-6-yl]oxy}(fluoro)ethanoate], the half-life at 10 μM in series [1] (setting [12]) was determined as 44 min; in series [3] (setting [14]), 1 min; in series [4] (HEPES buffer without enzyme) it was 55 min.
With `CCC(CC)OC(=O)[C@@H](F)ON1C(=O)N2C[C@H]1C=C(C)[C@H]2C(N)=O` [Example 24, (R)-pentan-3-yl 2-((2S,5R)-2-carbamoyl-3-methyl-7-oxo-1,6-diazabicyclo[3.2.1]oct-3-en-6-yloxy)-2-fluoroacetate], the half-life at 10 μM in series [1] (setting [8]) was 34 min; in series [3] (setting [10]), 9 min; in series [4] (buffer), above 100 min.
Regarding `CC1=C[C@@H]2CN(C(=O)N2O[C@@H](F)C(=O)O)[C@@H]1CNC(=O)OC(C)(C)C` [Example 76, (2S)-2-[[(2S,5R)-2-[tert-butoxycarbonylamino)methyl]-3-methyl-7-oxo-1,6-diazabicyclo[3.2.1]oct-3-en-6-yl]oxy]-2-fluoro-acetic acid lithium salt], the IC50 in series [6] is 220 nM; in series [7], 940 nM.
For `CC1=C[C@@H]2CN(C(=O)N2O[C@@H](F)C(=O)O)[C@@H]1CN` [Example 77, (2S)-2-[[(2S,5R)-2-(aminomethyl)-3-methyl-7-oxo-1,6-diazabicyclo[3.2.1]oct-3-en-6-yl]oxy]-2-fluoro-acetic acid] the same measures were above 100000 nM and above 100000 nM.
For `CC(=O)NC[C@@H]1C(C)=C[C@@H]2CN1C(=O)N2O[C@@H](F)C(=O)O` [Example 78, (2S)-2-[[(2S,5R)-2-(acetamidomethyl)-3-methyl-7-oxo-1,6-diazabicyclo[3.2.1]oct-3-en-6-yl]oxy]-2-fluoro-acetic acid lithium salt] the same measures were 690 nM and 3600 nM.
`CC1=C[C@@H]2CN(C(=O)N2O[C@@H](F)C(=O)O)[C@@H]1CNC(=O)C(F)(F)F` [Example 79, (2S)-2-fluoro-2-[[(2S,5R)-3-methyl-7-oxo-2-[[(2,2,2-trifluoroacetyl)-aminolmethyl]-1,6-diazabicyclo[3.2.1]oct-3-en-6-yl]oxy]acetic acid lithium salt]: the half-maximal inhibitory concentration (IC50) in series [6] was found to be 5700 nM; in series [7], 4200 nM.
For `CC1=C[C@@H]2CN(C(=O)N2O[C@@H](F)C(=O)O)[C@@H]1C(=O)NCC#N` [Example 82, (2S)-2-fluoro-2-[[(2S,5R)-2-(cyanomethylcarbamoyl)-3-methyl-7-oxo-1,6-diazabicyclo[3.2.1]oct-3-en-6-yl]oxy]acetic acid lithium salt] the same measures were 28 nM and 85 nM.
As for `CC1=C[C@@H]2CN(C(=O)N2O[C@@H](F)C(=O)O)[C@@H]1C(=O)NCO` [Example 87, (2S)-2-fluoro-2-[[(2S,5R)-2-(hydroxymethylcarbamoyl)-3-methyl-7-oxo-1,6-diazabicyclo[3.2.1]oct-3-en-6-yl]oxy]acetic acid lithium salt], the 50% inhibitory concentration (IC50) in series [6] was 11 nM; in series [7], 150 nM.
As for `CC(=O)NCNC(=O)[C@@H]1C(C)=C[C@@H]2CN1C(=O)N2O[C@@H](F)C(=O)O` [Example 88, (2S)-2-fluoro-2-[[(2S,5R)-2-(acetamidomethylcarbamoyl)-3-methyl-7-oxo-1,6-diazabicyclo[3.2.1]oct-3-en-6-yl]oxy]acetic acid lithium salt], the IC50 in series [6] came to 45 nM; in series [7], 54 nM.
For `CC1=C[C@@H]2CN(C(=O)N2O[C@@H](F)C(=O)O)[C@@H]1C(=O)NCNS(N)(=O)=O` [Example 89, lithium salt] the same measures were 150 nM and 33 nM.
For `CC1=C[C@@H](C(N)=O)N2C[C@@H]1N(OC(F)(F)C(=O)O)C2=O` [Example 91, 2-(((2S,5R)-2-carbamoyl-4-methyl-7-oxo-1,6-diazabicyclo[3.2.1]oct-3-en-6-yl)oxy)-2,2-difluoroacetic acid lithium salt] the same measures were 18 nM and 0.47 nM.
Turning to `CCOC(=O)[C@@H](F)ON1C(=O)N2C[C@H]1C(C)=C[C@H]2C#N` [Example 94, ethyl (2R)-2-(((2S,5R)-2-cyano-4-methyl-7-oxo-1,6-diazabicyclo[3.2.1]oct-3-en-6-yl)oxy)-2-fluoroacetate], the half-life at 10 μM was found to be 10.6 min in series [1] (setting [8]), 1.3 min in series [2] (setting [9]), 46.9 min in series [4] (buffer) and 25.9 min in series [5] (setting [11]).
In the case of `CC1=C[C@@H](C#N)N2C[C@@H]1N(O[C@H](F)C(=O)O)C2=O` [Example 95, (2R)-2-(((2S,5R)-2-cyano-4-methyl-7-oxo-1,6-diazabicyclo[3.2.1]oct-3-en-6-yl)oxy)-2-fluoroacetic acid lithium salt], the results for the IC50 in series [6] and in series [7] were 1.3 nM and 35 nM, respectively.
